Source: US8246966B2, “Trypanosome microsome system and uses thereof” (priority 2006, dated 2012)

Columns and labels:
[1] = system: T. brucei microsomes (TbRM); experiment: Import of full length VSG—117 into TbRM with T. brucei cytosol (Example 10); assay type: biochemical, Trypanosoma brucei
Procedure: FIGS. 18A and 18B. MAL3-101, equisetin, and CJ-21,058 inhibit VSG translocation into TbRM. FIG. 18A presents the protocol used for import of VSG—117. In FIG. 18B, VSG—117 mRNA was translated in rabbit reticulocyte lysate with 1.5 equivalents T. brucei cytosol pretreated with MAL3-101 (3 μM), MAL3-51 (10 μM), CJ-21,058 (20 μM) or equisetin (50 μM)) for 60 minutes. The reaction mixtures received cycloheximide (50 μg/ml, final concentration) and were incubated with TbRM (one equivalent). After incubation at 37° C. for 60 minutes, reaction mixtures were transferred to an ice-water bath and treated with proteinase K (30 μg/ml, final concentration) for 60 minutes. Proteins were resolved by SDS-PAGE and detected by phosphorimaging. Lane 1 is VSG—117 incubated with TbRM; lane 2 is VSG—117 digested with proteinase K after incubation with TbRM; lane 3 is VSG—117 incubated with MAL3-101 in the presence of TbRM; lane 4 is VSG—117 and TbRM incubated with MAL3-101 and then digested with proteinase K; lane 5 is VSG—117 incubated with MAL3-51 and TbRM; lane 6 is VSG—117 incubated with TbRM in the presence of equisetin; lane 7 is VSG—117 incubated with ThRM; lane 8 is VSG—117 incubated with equisetin and digested with proteinase K; lane 9 is VSG—117 incubated with CJ-21,058 and TbRM; lane 10 is VSG—117 incubated with TbRM and CJ-21,058 and digested with proteinase K. For quantitation, each proteasedigested sample was compared to a control experiment containing the drug but without protease addition. Thus, lane 2 is compared with lane 1 while lane 4 is compared to lane 3, and so on.
Protein Import Into TbRM. Two μg of RNA encoding VSG—117 (or VSG_MVAT7) was translated in 30 μl of a reaction mixture containing 15 μl rabbit reticulocyte lysate, 60 μM amino acid mixture (-Met, -Cys), and 2.4 μCi [^35S]Promix. […] The gels were dried, and radioactive polypeptides were detected with a phosphorimager (Personal Molecular Imager FX, (BioRad). Data were quantified with QuantityOne software (BioRad), and graphs were plotted with DeltaGraph (Red Rock software). […]

[2] = system: Blood stream form T. brucei CA427; experiment: Trypanocidal activity against cultured blood stream form T. brucei (Example 2); assay type: cell-based, Trypanosoma brucei; conditions: for IC50: read-out: concentration at which fifty percent of parasites were killed (IC50)
Procedure: Blood stream form T. brucei CA427 were grown in HMI-9 media to the cell density of 10^6. The cells were then transferred to 96 well plates with the addition of different concentrations of MAL3-101, MAL3-51, CJ-21,058 or equisetin. In controls, DMSO was added. Cell density was calculated at the end of 24 hours, and the graph was plotted.
Cell culture. Blood stream form T. brucei CA427 was cultured in HMI-9 medium (Hirumi and Hirumi, 1994, Parasitol Today; 10:80-84) to a maximum density of 10^6/ml. For use in drug sensitivity studies, cells were seeded at […], and one hundred microliters added to each well of a 96-well plate, with or without test compounds at stated concentrations, as discussed in Brief Descriptions of FIGS. 1-4. In controls, DMSO, the solvent for the compounds, was added. Cells were counted after 24 or 48 hours, using a hemocytometer, and the data graphed. All experiments were performed in triplicates.

| SMILES | inhibition of VSG—117 translocation into TbRM ([1]; equisetin (50 μM in FIG. 18B legend)) [%] | IC50 ([2]; cultured T. brucei) [µM] | VSG—117 protected from proteinase K ([1]; MAL3-101 present (3 μM in FIG. 18B legend), DMSO approximately 80%) [%] | trypanocidal activity (in words) [2] | concentration at which one hundred percent of parasites were killed (IC100) ([2]; cultured T. brucei) [nM] | inhibition of import of VSG—117 into TbRM compared to DMSO control ([1]; CJ-21,058 (20 μM in FIG. 18B legend)) [%] |
| --- | --- | --- | --- | --- | --- | --- |
| C/C=C/[C@@H]1C=C[C@@H]2C[C@H](C)CC[C@H]2[C@]1(C)/C(O)=C1/C(=O)[C@H](CO)N(C)C1=O [equisetin] | 95 | 3.3 |  |  |  |  |
| CCCCCCN(C(=O)CCCCCN1C(=O)NC(c2ccc(-c3ccccc3)cc2)C(C(=O)OCc2ccccc2)=C1C)C(C(=O)NCCCC)c1ccc(OCC(=O)OC)c(C(=O)OC)c1 (centres unmarked) [MAL3-101] |  | 0.125 | 13 | killed T. brucei at sub-micromolar level | 500 |  |
| C/C=C/C1C(C)=CC2CC(C)CCC2C1(C)/C(O)=C1/C(=O)C(CO)N(C)C1=O (centres unmarked) [CJ-21,058] |  | 7 |  |  |  | 70 |
